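Interpolation was linear, between the two tested concentrations surrounding the appropriate level; five concentrations were tested over 48 hours in 96-well plates. TGI: total growth inhibition.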
Tests used:
Experiment in all cases: growth of human tumour cells (NCI), 48 h
786-0 renal = test system: 786-0 renal
A498 renal = test system: A498 renal
A549 NSCLC = test system: A549 NSCLC
ACHN renal = test system: ACHN renal
BT-549 breast = test system: BT-549 breast
CAKI-1 renal = test system: CAKI-1 renal
COLO 205 colon = test system: COLO 205 colon
DU-145 prostate = test system: DU-145 prostate
EKVX NSCLC = test system: EKVX NSCLC
HCC-2998 colon = test system: HCC-2998 colon
HCT-116 colon = test system: HCT-116 colon
HCT-15 colon = test system: HCT-15 colon
HOP-62 NSCLC = test system: HOP-62 NSCLC
HOP-92 NSCLC = test system: HOP-92 NSCLC
HS 578T breast = test system: HS 578T breast
HT29 colon = test system: HT29 colon
IGROV1 ovarian = test system: IGROV1 ovarian
KM12 colon = test system: KM12 colon
LOX IMVI melanoma = test system: LOX IMVI melanoma
M14 melanoma = test system: M14 melanoma
MALME-3M melanoma = test system: MALME-3M melanoma
MCF7 breast = test system: MCF7 breast
MDA-MB-231 breast = test system: MDA-MB-231 breast
MDA-MB-435 = test system: MDA-MB-435
MDA-N = test system: MDA-N
MOLT-4 leukemia = test system: MOLT-4 leukemia
NCI-H226 lung = test system: NCI-H226 lung
NCI-H23 lung = test system: NCI-H23 lung
NCI-H460 lung = test system: NCI-H460 lung
NCI-H522 lung = test system: NCI-H522 lung
NCI/ADR-RES ovarian = test system: NCI/ADR-RES ovarian
OVCAR-3 ovarian = test system: OVCAR-3 ovarian
OVCAR-4 ovarian = test system: OVCAR-4 ovarian
OVCAR-5 ovarian = test system: OVCAR-5 ovarian
OVCAR-8 ovarian = test system: OVCAR-8 ovarian
PC-3 prostate = test system: PC-3 prostate
RPMI-8226 leukemia = test system: RPMI-8226 leukemia
RXF 393 renal = test system: RXF 393 renal
SF-268 CNS = test system: SF-268 CNS
SF-295 CNS = test system: SF-295 CNS
SF-539 CNS = test system: SF-539 CNS
SK-MEL-2 melanoma = test system: SK-MEL-2 melanoma
SK-MEL-28 melanoma = test system: SK-MEL-28 melanoma
SK-MEL-5 melanoma = test system: SK-MEL-5 melanoma
SK-OV-3 ovarian = test system: SK-OV-3 ovarian
SN12C renal = test system: SN12C renal
SNB-19 CNS = test system: SNB-19 CNS
SNB-75 CNS = test system: SNB-75 CNS
SR leukemia = test system: SR leukemia
SW-620 colon = test system: SW-620 colon
T-47D breast = test system: T-47D breast
TK-10 renal = test system: TK-10 renal
U251 CNS = test system: U251 CNS
UACC-257 melanoma = test system: UACC-257 melanoma
UACC-62 melanoma = test system: UACC-62 melanoma
CCRF-CEM leukemia = test system: CCRF-CEM leukemia
K-562 leukemia = test system: K-562 leukemia
UO-31 renal = test system: UO-31 renal

CCOP(=O)(OCC)/C(C#N)=C/c1ccnc2ccccc12
TGI (786-0 renal): 51.2 µM | TGI (A498 renal): > 100 µM | TGI (A549 NSCLC): > 100 µM | TGI (ACHN renal): > 100 µM | TGI (BT-549 breast): 50.9 µM | TGI (CAKI-1 renal): 80.3 µM | TGI (COLO 205 colon): 38.1 µM | TGI (DU-145 prostate): > 100 µM | TGI (EKVX NSCLC): > 100 µM | TGI (HCC-2998 colon): > 100 µM | TGI (HCT-116 colon): > 100 µM | TGI (HCT-15 colon): 52.4 µM | TGI (HOP-62 NSCLC): > 100 µM | TGI (HOP-92 NSCLC): 43.7 µM | TGI (HS 578T breast): 69.6 µM | TGI (HT29 colon): 37.5 µM | TGI (IGROV1 ovarian): > 100 µM | TGI (KM12 colon): 91.3 µM | TGI (LOX IMVI melanoma): > 100 µM | TGI (M14 melanoma): 47.6 µM | TGI (MALME-3M melanoma): > 100 µM | TGI (MCF7 breast): > 100 µM | TGI (MDA-MB-231 breast): 58.2 µM | TGI (MDA-MB-435): 31.3 µM | TGI (MDA-N): 42.2 µM | TGI (MOLT-4 leukemia): > 100 µM | TGI (NCI-H226 lung): 55.9 µM | TGI (NCI-H23 lung): 59.7 µM | TGI (NCI-H460 lung): > 100 µM | TGI (NCI-H522 lung): 57.8 µM | TGI (NCI/ADR-RES ovarian): > 100 µM | TGI (OVCAR-3 ovarian): 70.6 µM | TGI (OVCAR-4 ovarian): > 100 µM | TGI (OVCAR-5 ovarian): 51 µM | TGI (OVCAR-8 ovarian): 52 µM | TGI (PC-3 prostate): 35.4 µM | TGI (RPMI-8226 leukemia): > 100 µM | TGI (RXF 393 renal): 79.1 µM | TGI (SF-268 CNS): 56.5 µM | TGI (SF-295 CNS): 57.9 µM | TGI (SF-539 CNS): 49.2 µM | TGI (SK-MEL-2 melanoma): 50.5 µM | TGI (SK-MEL-28 melanoma): > 100 µM | TGI (SK-MEL-5 melanoma): 47.8 µM | TGI (SK-OV-3 ovarian): 82.7 µM | TGI (SN12C renal): 88.2 µM | TGI (SNB-19 CNS): 57.5 µM | TGI (SNB-75 CNS): 75.8 µM | TGI (SR leukemia): 73.6 µM | TGI (SW-620 colon): > 100 µM | TGI (T-47D breast): > 100 µM | TGI (TK-10 renal): > 100 µM | TGI (U251 CNS): > 100 µM | TGI (UACC-257 melanoma): > 100 µM | TGI (UACC-62 melanoma): 61.4 µM

C/C=C/[C@H](O[Si](C)(C)C(C)(C)C)[C@@H](O)/C=C/C(=O)OCC
TGI (786-0 renal): 41.5 µM | TGI (A498 renal): 67.9 µM | TGI (A549 NSCLC): > 100 µM | TGI (ACHN renal): 30.2 µM | TGI (BT-549 breast): 65.4 µM | TGI (CAKI-1 renal): 34.2 µM | TGI (CCRF-CEM leukemia): 35.4 µM | TGI (COLO 205 colon): 40.6 µM | TGI (DU-145 prostate): > 100 µM | TGI (EKVX NSCLC): 45.4 µM | TGI (HCC-2998 colon): 34.8 µM | TGI (HCT-116 colon): 32.3 µM | TGI (HCT-15 colon): 27.7 µM | TGI (HOP-62 NSCLC): 39.8 µM | TGI (HOP-92 NSCLC): 46.3 µM | TGI (HS 578T breast): 79.5 µM | TGI (HT29 colon): 39.2 µM | TGI (IGROV1 ovarian): 50.4 µM | TGI (K-562 leukemia): 43.9 µM | TGI (KM12 colon): 32.3 µM | TGI (LOX IMVI melanoma): 33.3 µM | TGI (MALME-3M melanoma): 28.4 µM | TGI (MCF7 breast): 45.2 µM | TGI (MDA-MB-231 breast): 66 µM | TGI (MDA-MB-435): 38.5 µM | TGI (MDA-N): 42.8 µM | TGI (MOLT-4 leukemia): 37.6 µM | TGI (NCI-H226 lung): 83.7 µM | TGI (NCI-H23 lung): > 100 µM | TGI (NCI-H460 lung): 34.6 µM | TGI (NCI-H522 lung): 30.3 µM | TGI (NCI/ADR-RES ovarian): 76.8 µM | TGI (OVCAR-3 ovarian): 47.6 µM | TGI (OVCAR-4 ovarian): 27.8 µM | TGI (OVCAR-5 ovarian): 79.5 µM | TGI (OVCAR-8 ovarian): 34.6 µM | TGI (PC-3 prostate): > 100 µM | TGI (RPMI-8226 leukemia): 12.1 µM | TGI (RXF 393 renal): 43.1 µM | TGI (SF-268 CNS): 53.7 µM | TGI (SF-295 CNS): 46 µM | TGI (SF-539 CNS): 52 µM | TGI (SK-MEL-2 melanoma): 82 µM | TGI (SK-MEL-28 melanoma): 32.4 µM | TGI (SK-MEL-5 melanoma): 32.2 µM | TGI (SN12C renal): 48.1 µM | TGI (SNB-19 CNS): 28.7 µM | TGI (SNB-75 CNS): > 100 µM | TGI (SR leukemia): 44.1 µM | TGI (SW-620 colon): 39.2 µM | TGI (T-47D breast): 89.8 µM | TGI (TK-10 renal): 75.6 µM | TGI (U251 CNS): 35.5 µM | TGI (UACC-257 melanoma): 40.8 µM | TGI (UACC-62 melanoma): 38.8 µM | TGI (UO-31 renal): 42.5 µM

— PubChem BioAssay (NCI)
